Data published in patent US20250051391A1, “PEPTIDE INHIBITORS AND METHODS FOR INHIBITING PROTEIN AGGREGATION IN NEURONS AND NEURODEGENERATIVE DISEASES” (THE GOVERNING COUNCIL OF THE UNIVERSITY OF TORONTO, priority 2021, published 2025).
Ends that are not written are not given here.

Legend:
a-syn-CHMP2B interaction = molecular target: T1, a-syn-CHMP2B interaction (Homo sapiens, UniProt Q9UQN3); test: Co-immunoprecipitation: disruption of CHMP2B-A53T a-syn interaction; type: cell-based; settings: HEK293 cells; Flag-CHMP2B, HA-tagged A53T a-syn, GFP-tagged peptides
T1 construct: expressed in transfected cells; host or cells: HEK293T
T1 sequence (Q9UQN3 whole entry): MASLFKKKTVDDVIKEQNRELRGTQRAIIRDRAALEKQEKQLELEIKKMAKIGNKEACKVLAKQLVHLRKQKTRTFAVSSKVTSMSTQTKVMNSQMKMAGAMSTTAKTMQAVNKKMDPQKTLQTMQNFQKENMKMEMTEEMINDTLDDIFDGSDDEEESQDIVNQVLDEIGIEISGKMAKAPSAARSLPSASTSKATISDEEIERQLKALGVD
Procedure: (§1) HEK293T cells were co-transfected with Flag-tagged target protein, HA-tagged source protein, and GFP-tagged peptide or GFP. Cells were lysed 48 h after transfections with radioimmune precipitation assay buffer (50 mM Tris-HCl pH7.4, 1% Nonidet P-40, 150 mM NaCl, 1 mM EDTA, 10 mM Na3VO4, 10 mM sodium pyrophosphate, 25 mM NaF, 1× protease inhibitor mixture (Sigma)) for 30 min at 4° C. and coimmunoprecipitated with Flag beads (Clontech). The resulting immunocomplexes were analyzed by immunoblot using the appropriate antibodies. Protein samples were separated using 4-20% Mini-PROTEAN Tris-glycine gels (Bio-Rad) transferred to PVDF membranes and blocked in 5% milk containing PBS-Tween-20 (0.1%) for 1 h. PVDF membranes were then incubated with specified primary antibodies followed by incubation with horseradish peroxidase-conjugated secondary antibodies (Santa Cruz Biotechnology) and detected using enhanced chemiluminescence (GE Healthcare).

CHMP2B = molecular target: T2, CHMP2B (Homo sapiens, UniProt Q9UQN3); test: a-syn competition fluorescence polarization assay (FITC-Pdpep1.3 and CHMP2B); type: binding; settings: 50 nM FITC-Pdpep1.3, 1 μM CHMP2B, a-syn titrated
T2 construct: against CHMP2B 1-199 truncation and CHMP2B full length; His tag (implied by Ni-NTA purification; pET-DEST42 vector); made in house; host or cells: E. coli Overexpress C41
T2 sequence (Q9UQN3 whole entry, the tested form may be a part): as the sequence (Q9UQN3 whole entry) above

HEK293 cells = test: LAMP1 and CD63 levels in HEK293 cells co-transfected with A53T a-syn and peptide; type: cell-based, human
Procedure: (§2) Infected or transfected cells were scraped from 6-well dishes and lysed with lysis buffer (50 mM Tris-HCl pH7.4, 1% Nonidet P-40, 150 mM NaCl, 1 mM EDTA, 1× protease inhibitor mixture (Sigma)) for 30 min at 4° C. The insoluble pellet was removed following a 10,000 rpm spin for 5 minutes at 4° C. Lysates were analyzed by SDS-PAGE/immunoblot using 4-20% Mini-PROTEAN Tris-glycine gels (Bio-Rad) transferred to PVDF membranes and blocked in 5% milk containing PBS-Tween-20 (0.1%) for 1 h. PVDF membranes were then incubated with specified primary antibodies followed by incubation with horseradish peroxidase-conjugated secondary antibodies (Santa Cruz Biotechnology) and detected using enhanced chemiluminescence (GE Healthcare).
After fixation, cells were permeabilized with 0.2% Triton X-100 for 15 min, washed 3 times with PBS and then incubated with blocking solution (1% BSA, 22.52 mg/mL glycine, 0.1% Tween-20 in PBS) for 1 h. Primary antibodies were diluted in blocking solution and incubated overnight at 4° C. Following three washes with PBS, cells were next incubated with fluorescent secondary antibodies diluted in blocking solution for 1 h at room temperature. Following another 3 PBS washes, nuclei were counterstained with DAPI (ThermoFisher) and then coverslips were mounted on slides using fluorescence mounting medium (DAKO) and sealed using clear nail varnish.

[1] = system: A53T a-syn iPSC-derived dopaminergic neurons; test: Human iPSC-derived dopaminergic neurons with A53T a-syn mutation; type: cell-based; settings: A53T a-syn iPSC-derived dopaminergic neurons vs isogenic controls
Procedure: iCell Dopa neurons (A53T a-syn mutant and isogenic control) were purchased from Fujifilm Cellular Dynamics (Madison, WI, USA) and cultured as per manufacturer's instructions. Briefly, cells were plated in complete maintenance medium provided by the manufacturer on poly-L-ornithine/laminin coated plates (ibidi). Cells recovered from thawing for 24 h and then were transduced with AAV-Scramble1.3-RFP or AAV-Pdpep1.3-RFP for 48 h at which time media was completely changed. Cells were fixed using 4% PFA at 7 days post-plating.
After fixation, cells were permeabilized with 0.2% Triton X-100 for 15 min, washed 3 times with PBS and then incubated with blocking solution (1% BSA, 22.52 mg/mL glycine, 0.1% Tween-20 in PBS) for 1 h. […] Following another 3 PBS washes, nuclei were counterstained with DAPI (ThermoFisher) and then coverslips were mounted on slides using fluorescence mounting medium (DAKO) and sealed using clear nail varnish.
Confocal images of primary cortical neurons, dopaminergic neurons, and LAMP1 staining within the SN were processed using Imaris software (Oxford instruments). Z stacks were projected to give a 3D reconstruction of the field of view and mean pixel intensity per GFP^+ cell (or RFP^+ cell for V1S/SV2 experiments) was calculated for a-syn or LAMP1 signal using the software's surfaces module. […]

A53T a-syn = test: a-syn protein levels by immunoblot in HEK293 cells; type: cell-based, human; settings: HEK293 cells expressing A53T a-syn
Procedure: as §2

Flag-CHMP2B = molecular target: T3, Flag-CHMP2B (Homo sapiens, UniProt Q9UQN3); test: Flag co-immunoprecipitation of GFP-peptides with Flag-CHMP2B; type: binding; settings: GFP-tagged peptides in HEK293T cells
T3 construct: expressed in transfected cells; host or cells: HEK293T
T3 sequence (Q9UQN3 whole entry): as above
Procedure: as §1

[2] = system: HEK293 cells overexpressing WT or A53T a-syn; test: Cell Titer-Glo cell viability assay in a-syn expressing cells; type: cell-based, human; settings: for cell viability / cytoprotective effect: HEK293 cells overexpressing WT or A53T a-syn, with or without MG132, expressed GFP-peptide or protein
Procedure: Oligonucleotides encoding the specific peptides were synthesized and individually cloned into the pLJM1 nGFP lentiviral vector. Cells were infected with individual constructs, and cell viability was assessed using Cell Titer-Glo Luminescent assay (Promega) at 72 h post infection.
Cells were trypsinized from subconfluent cultures as described earlier, suspended in culture media, and then seeded into triplicate wells of a 96-well plate (100 μl well/1) at a density of 1.5×10^4 cells per well at standard culture conditions of 5% CO2 in air at 37° C. Cells were infected with lentivirus expressing peptide at an MOI of 5 for 72 h or transfected with plasmid for 72 h. Cell Titer-Glo reagent was added to each well (30 μL), according to the manufacturer's protocol and […].

WT a-syn oligomers = test: Split luciferase a-syn oligomer/aggregation assay; type: cell-based, human; settings: cells stably expressing split luciferase WT a-syn constructs; GFP-peptide plasmids
Procedure: tet-off cells stably expressing split luciferase a-syn constructs were trypsinized from subconfluent culture and seeded in a 96-well plate at a density of 15,000 cells per well. Cells were incubated overnight at 37° C. in 5% CO2. […] After 6 h of incubation, 20 μL of cell medium was transferred to a black flat-bottomed 96-well plate. 50 μL of Working solution (Pierce Gaussia-Firefly Luciferase Dual Assay Kit, Thermo Scientific #16181) was added into each well containing cell medium. Immediately after adding the reagent, samples were read using a luminometer with a 480 nm filter.

Row | Substance | disruption of a-syn-CHMP2B interaction (co-immunoprecipitation) (a-syn-CHMP2B interaction) | competition with a-syn for binding to CHMP2B (CHMP2B) | CD63 levels (MVB marker) (HEK293 cells; HEK293 cells expressing A53T a-syn) | LAMP1 levels (HEK293 cells; HEK293 cells overexpressing A53T a-syn) | LAMP1 levels [1] | a-syn levels [1] | a-syn protein levels by immunoblot (A53T a-syn) | interaction with Flag-CHMP2B (co-immunoprecipitation) (Flag-CHMP2B) | interaction with Flag-CHMP2B (co-immunoprecipitation) (Flag-CHMP2B; listed as Pdpep1.3) | cell viability / cytoprotective effect [2] | effect on cell viability under p62 knockdown ([2]; HEK293 cells stably expressing p62 shRNA) | cytoprotective effect under shRNA knockdown of CHMP2B, VPS4A and/or VPS4B ([2]; cells stably expressing shRNAs) | a-syn oligomers measured by luciferase activity (WT a-syn oligomers)
1 | DEEIERQLKALG [PDpep1.3] | most prominent disruption | competed for binding to CHMP2B | return of CD63 | restored | returned both a-syn and LAMP1 levels to those of controls | returned both a-syn and LAMP1 levels to those of controls | reduction in a-syn levels | interacted with Flag-CHMP2B | binds to CHMP2B | most prominent effects on cell survival | not significantly affected | prevented by CHMP2B knockdown, but not by knockdown of VPS4A and/or VPS4B | most prominent effects
2 | IPIQLKA [PDpep1, top hit of all screens; maps to CHMP2B residues 203-209] | disrupted the a-syn-CHMP2B interaction |  |  |  |  |  | reduction in a-syn levels | interacted with Flag-CHMP2B |  | cytoprotective effects |  |  | reduce WT a-syn oligomers
